Test results reported in patent US12415771B2, “Compounds for the treatment of neuromuscular disorders” (NMD PHARMA A/S, priority 2019, dated 2025).
Read-outs that look alike come from different tables or passages of the source.

Columns and labels:
female Lewis rats = experiment: In situ isometric hindlimb force in anaesthetised rats under partial neuromuscular block by Cisatracurium; assay type: in vivo; settings: Rattus norvegicus, iv, read-out: increase in tetanic force
Protocol: Isometric hindlimb force was measured in 12-week old female Lewis rats in the presence and absence of compound.
Rats were placed under anesthesia with isoflurane (2-4%), intubated and subsequently connected to a micro ventilator (Microvent 1, Hallowell EMC, US). Two stimulation electrodes were inserted through the skin to stimulate the sciatic nerve. A small incision was made proximal to the ankle, to expose the Achilles tendon, which was tied by cotton string, and connected to a force transducer (Fort250, World Precision Instruments) with adjustable position (Vernier control). The Achilles tendon was then cut distal to the attached cotton string. The rat was placed on a heated pad, and to prevent movement artefacts from contraction of the ankle dorsiflexors, the foot was fixated by tape on a footplate.
Muscle contractile properties were assessed by applying an electrical current (under supramaximal voltage conditions) to the nerve and recording the force generated by the muscle. The muscle was stretched until maximal force was obtained, when assessed by 2 Hz stimulation. Isometric force was measured every 30 seconds at 12 Hz (Twitch), 10 pulses, and at every 5 minutes at 80 Hz (Tetanic) for 1 second (80 pulses). This stimulation pattern was employed throughout the experiment, expect in few cases where 80 Hz stimulation was replaced by 12 Hz (10 pulses). […] When the level of neuromuscular inhibition was stable, the test article was injected i.v. at the chosen concentration. The effect of test article was assessed on its ability to increase force generated from the stimulation pattern applied. The effect was assessed in the ability to increase force per se (tetanic, 80 Hz, stimulation), and the ratio between individual twitch peaks (12 Hz stimulation). The effect was monitored for at least 1 hour after injection of test article. In addition, the time from injection of test article to maximal effect on force (both twitch and tetanic) was noted and the time for the effect to disappear (return to baseline), if possible. When appropriate the infusion of neuromuscular blocking agent was ceased, with the stimulation pattern continued, and the return of force to control levels was monitored. Animals were sacrificed by cervical dislocation while still fully sedated.

[1] = tested on: isolated rat soleus muscles; experiment: Recovery of nerve-stimulated contractile force in isolated rat soleus nerve-muscle preparation exposed to tubocurarine; settings: for activation at 50 µM: 40 min, read-out: Point increase (%) of initial force that was restored
Protocol: Recovery of force is quantified as the percentage of the force prior to tubocurarine that is recovered by the compound.
The current disclosure relates to compounds that inhibit CIC-1 ion channels and increase muscle excitability and thereby improve muscle function in clinical conditions where muscle activation is failing. Such conditions result in loss of contractile function of skeletal muscle, weakness and excessive fatigue. In this series of experiments the compounds were tested for their ability to restore contractile function of isolated rat muscle when the neuromuscular transmission had been compromised akin to neuromuscular disorders.
Experimentally, soleus muscles from 4-5 wk old rats were isolated with the motor nerve remaining attached. The nerve-muscle preparations were mounted in experimental setups that enabled electrical stimulation of the motor nerve. Stimulation of the motor nerve led to activation of the muscle fibres and ensuing force production that was recorded.
After mounting the nerve-muscle preparation in the experimental setup, the contractile function of the muscle was initially assessed under the control conditions (FIG. 2A). […] The experimental condition mimics the failing neuromuscular transmission in a range of neuromuscular disorders. After addition of tubocurarine the contractile force declined over the next 90 mins to 10-50% of the control force. 50 μM of the test compound was then added and the contractile force recovered despite the continued presence of tubocurarine. To quantify the ability of the compound to restore force the percentage of the initial force that was restored was determined after 40 mins of compound exposure (FIG. 2B) and the point increase is reported in Table 3.

CIC-1 ion channel = target: T1, CIC-1 ion channel (Rattus norvegicus, UniProt P35524); experiment: Electrophysiological measurement (Gm, three micro-electrode technique) of compound inhibition of CIC-1 in rat soleus muscle fibres; assay type: cell-based; settings: whole rat soleus muscle, Gm at four increasing concentrations, approx. 30° C., mean ± spread
T1 construct: from tissue; host or cells: intact soleus muscle of 12-14 week old Wistar rats
T1 sequence (P35524 1-994): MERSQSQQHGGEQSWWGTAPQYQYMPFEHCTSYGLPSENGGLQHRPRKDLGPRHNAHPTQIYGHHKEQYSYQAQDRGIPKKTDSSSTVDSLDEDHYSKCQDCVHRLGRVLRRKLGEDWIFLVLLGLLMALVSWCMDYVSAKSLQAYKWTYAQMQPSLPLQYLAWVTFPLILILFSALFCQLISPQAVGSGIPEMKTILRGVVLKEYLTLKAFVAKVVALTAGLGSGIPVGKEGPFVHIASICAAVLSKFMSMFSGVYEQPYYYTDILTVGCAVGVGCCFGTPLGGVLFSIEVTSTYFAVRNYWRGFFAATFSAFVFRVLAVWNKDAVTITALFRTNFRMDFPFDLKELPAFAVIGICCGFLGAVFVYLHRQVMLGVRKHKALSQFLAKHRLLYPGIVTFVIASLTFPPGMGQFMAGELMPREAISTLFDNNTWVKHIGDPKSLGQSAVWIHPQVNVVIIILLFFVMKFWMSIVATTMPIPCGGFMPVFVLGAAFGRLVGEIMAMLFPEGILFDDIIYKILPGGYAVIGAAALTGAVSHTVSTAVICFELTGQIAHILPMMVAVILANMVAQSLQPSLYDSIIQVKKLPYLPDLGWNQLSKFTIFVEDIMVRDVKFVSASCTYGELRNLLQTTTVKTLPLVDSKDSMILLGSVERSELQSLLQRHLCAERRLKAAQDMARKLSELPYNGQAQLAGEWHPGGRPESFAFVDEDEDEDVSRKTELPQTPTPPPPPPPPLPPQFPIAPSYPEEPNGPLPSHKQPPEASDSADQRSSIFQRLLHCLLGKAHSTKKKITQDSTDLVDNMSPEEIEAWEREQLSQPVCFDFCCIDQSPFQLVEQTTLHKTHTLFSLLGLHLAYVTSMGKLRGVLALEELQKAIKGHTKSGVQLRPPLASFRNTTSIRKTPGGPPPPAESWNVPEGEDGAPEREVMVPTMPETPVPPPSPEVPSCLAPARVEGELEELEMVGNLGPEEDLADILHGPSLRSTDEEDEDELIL

[2] = 50 μM test compound, after 40 mins exposure, 115 nM tubocurarine for 90 mins, rat soleus

Row | Compound | activation at 50 µM [1, 2] [%] | EC50 (CIC-1 ion channel) [nM] | further results
1 | C[C@H](Oc1ccc(Br)cc1C(C)(F)F)C(=O)O [Compound A-4, (2S)-2-[4-bromo-2-(1,1-difluoroethyl)phenoxy]propanoic acid] | 34 |  | change in vivo at 21.6 mg/kg (female Lewis rats; 21.6 mg/kg i.v., 80 Hz stimulation, Cisatracurium block): 34%
2 | CCC(F)(F)c1cc(Cl)ccc1O[C@@H](C)C(=O)O [Compound A-5, (2S)-2-[4-chloro-2-(1,1-difluoropropyl)phenoxy]propanoic acid] |  | 4000 ± 2100 | change in vivo at 10.5 mg/kg (female Lewis rats): 47%; activation at 50 µM ([1]; Rattus norvegicus): 53%
3 | CCC(F)(F)c1cc(Br)ccc1OCC(=O)O [Compound A-6, 2-[4-bromo-2-(1,1-difluoropropyl)phenoxy]acetic acid] | 35 | 7500 ± 2900 | 
4 | CC(C)C(F)(F)c1cc(Br)ccc1O[C@@H](C)C(=O)O [Compound A-7, (2S)-2-[4-bromo-2-(1,1-difluoro-2-methylpropyl)phenoxy]propanoic acid] | 42 | 3500 ± 700 | change in vivo at 25.1 mg/kg (female Lewis rats; 25.1 mg/kg i.v., 80 Hz stimulation, Cisatracurium block): 64%
5 | CCC(F)(F)c1cc(Br)ccc1O[C@@H](CF)C(=O)O [Compound A-11, (2R)-2-[4-bromo-2-(1,1-difluoropropyl)phenoxy]-3-fluoropropanoic acid] |  | 1600 ± 200 | change in vivo at 17.6 mg/kg (female Lewis rats; 17.6 mg/kg i.v., 80 Hz stimulation, Cisatracurium block): 44%
6 | CC(F)(F)c1cc(Br)ccc1O[C@@H](CF)C(=O)O [Compound A-16, (2R)-2-[4-bromo-2-(1,1-difluoroethyl)phenoxy]-3-fluoropropanoic acid] |  | 3200 ± 800 | change in vivo at 22.9 mg/kg (female Lewis rats; 22.9 mg/kg i.v., 80 Hz stimulation, Cisatracurium block): 46%
7 | CCC(F)(F)c1cc(Br)ccc1O[C@@H](CCl)C(=O)O [Compound A-17, (2R)-2-[4-bromo-2-(1,1-difluoropropyl)phenoxy]-3-chloropropanoic acid] | 48 |  | 
8 | C#CC[C@H](Oc1ccc(Br)cc1C(F)(F)CC)C(=O)O [Compound A-18, (2S)-2-[4-bromo-2-(1,1-difluoropropyl)phenoxy]pent-4-ynoic acid] | 31 | 4800 ± 1100 | 
9 | C#CC[C@H](Oc1ccc(Cl)cc1C(C)(F)F)C(=O)O [Compound A-19, (2S)-2-[4-chloro-2-(1,1-difluoroethyl)phenoxy]pent-4-ynoic acid] | 27 |  | 
10 | CCC(F)(F)c1cc(I)ccc1O[C@@H](C)C(=O)O [Compound A-20, (2S)-2-[2-(1,1-difluoropropyl)-4-iodophenoxy]propanoic acid] | 44 | 1900 | 
11 | CCC(F)(F)c1cc(Br)c(F)cc1O[C@@H](C)C(=O)O [Compound A-24, (2S)-2-[4-bromo-2-(1,1-difluoropropyl)-5-fluorophenoxy]propanoic acid] |  | 900 ± 200 | 
12 | CCC(F)(F)c1cc(Br)c(F)cc1O[C@@H](CF)C(=O)O [Compound A-34, (2R)-2-[4-bromo-2-(1,1-difluoropropyl)-5-fluorophenoxy]-3-fluoropropanoic acid] |  | 1100 ± 200 | 
13 | C=Cc1ccc(O[C@@H](C)C(=O)O)c(C(F)(F)CC)c1 [Compound A-35, (2S)-2-[2-(1,1-difluoropropyl)-4-ethenylphenoxy]propanoic acid] | 20 |  | 
14 | CC(C)C(F)(F)c1cc(Br)ccc1OCC(=O)O [Compound A-38, 2-[4-bromo-2-(1,1-difluoro-2-methylpropyl)phenoxy]acetic acid] |  | 7400 | 
15 | CCC(F)(F)c1cc(Cl)c(F)cc1OCC(=O)O [Compound A-39, 2-[4-chloro-2-(1,1-difluoropropyl)-5-fluorophenoxy]acetic acid] |  | 7900 ± 3100 | activation at 50 µM ([1]; Rattus norvegicus): 37%
16 | CCC(F)(F)c1cc(Cl)c(F)cc1O[C@@H](CF)C(=O)O [Compound A-41, (2R)-2-[4-chloro-2-(1,1-difluoropropyl)-5-fluorophenoxy]-3-fluoropropanoic acid] |  | 1100 ± 400 | 
17 | CCC(F)(F)c1cc(Cl)c(Cl)cc1O[C@@H](C)C(=O)O [Compound A-42, (2S)-2-[4,5-dichloro-2-(1,1-difluoropropyl)phenoxy]propanoic acid] |  | 2500 ± 300 | activation at 50 µM ([1]; Rattus norvegicus): 30%
18 | CC(F)(F)c1cc(Br)c(F)cc1O[C@@H](CF)C(=O)O [Compound A-43, (2R)-2-[4-bromo-2-(1,1-difluoroethyl)-5-fluorophenoxy]-3-fluoropropanoic acid] |  | 2900 ± 900 | 
19 | CC(F)(F)c1cc(Cl)c(Cl)cc1O[C@@H](CF)C(=O)O [Compound A-44, (2R)-2-[4,5-dichloro-2-(1,1-difluoroethyl)phenoxy]-3-fluoropropanoic acid] | 24 |  | 
20 | C=Cc1cc(C(F)(F)CC)c(O[C@@H](C)C(=O)O)cc1F [Compound A-47, (2S)-2-[2-(1,1-difluoropropyl)-4-ethenyl-5-fluorophenoxy]propanoic acid] | 31 |  | 
21 | CC[C@H](Oc1cc(F)c(Br)cc1C(F)(F)CC)C(=O)O [Compound A-48, (2S)-2-[4-bromo-2-(1,1-difluoropropyl)-5-fluorophenoxy]butanoic acid] |  | 2000 | 
22 | CC[C@H](Oc1cc(F)c(Cl)cc1C(F)(F)CC)C(=O)O [Compound A-49, (2S)-2-[4-chloro-2-(1,1-difluoropropyl)-5-fluorophenoxy]butanoic acid] | 24 |  | 
23 | CCC(F)(F)c1cc([N+](=O)[O-])ccc1O[C@@H](C)C(=O)O [Compound A-51, (2S)-2-[2-(1,1-difluoropropyl)-4-nitrophenoxy]propanoic acid] | 37 |  | 
24 | CCC(F)(F)c1cc(F)c(F)cc1O[C@@H](CF)C(=O)O [Compound A-54, (2R)-2-[2-(1,1-difluoropropyl)-4,5-difluorophenoxy]-3-fluoropropanoic acid] | 36 |  | 
25 | (2S)-2-[4-bromo-2-(1,1-difluoropropyl)(3,5,6-^2H3)phenoxy]propanoic acid [Compound A-30] |  |  | Point increase (%) of initial force that was restored [1, 2]: 44%
26 | (2S)-2-[4-bromo-2-(1,1-difluoropropyl)phenoxy](2-^2H)propanoic acid [Compound A-21] |  | 2600 | Point increase (%) of initial force that was restored [1, 2]: 44%
